Test results published in paper PMC12278645, “Design, synthesis, and antitumor activity of novel thioheterocyclic nucleoside derivatives by suppressing the c-MYC pathway” (Acta Pharmaceutica Sinica. B, 2025).
Read-outs that look alike come from different tables or passages of the source.

Columns and labels:
HeLa cells = assay: CCK-8 anti-proliferation assay, HeLa; format: cell-based, human; conditions: Homo sapiens, HeLa, 48 h, CCK-8, 48 h, mean ± SD, three independent experiments
In short: (§1)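 Cells seeded at 4 × 10^3/well overnight (HCT116 in McCoy's 5A, HeLa in DMEM, 10% FBS), then treated with compound at 1–50 μmol/L for 48 h. CCK-8 absorbance at 450 nm; IC50 from dose–response curves, mean ± SD of three independent experiments.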

HCT116 cells [1] = assay: CCK-8 anti-proliferation assay, HCT116; format: cell-based, human; conditions: Homo sapiens, HCT-116, 48 h, CCK-8, 48 h, mean ± SD, three independent experiments
In short: as §1

[2] = system: DU145 (human prostate cancer); assay: CCK-8 anti-proliferation assay, DU145; format: cell-based; conditions: Homo sapiens, DU-145; CCK-8, 48 h, mean ± SD
Method: To evaluate their spectrum of anti-proliferative activity, further CCK-8 assays were carried out with the selected compounds (5a/5b, 8a/8b, 33a/33b, and 36a/36b) on MCF-7 (human breast cancer), A375 (human malignant melanoma), DU145 (human prostate cancer), and CT26 (mouse colon cancer) cell lines. The selected compounds had moderate to potent antitumor activity on the four cell lines, indicating their broad spectrum of antitumor activity (Table 5).
MCF-7, A375, and HeLa cells were cultured in DMEM, HCT116 cells were cultured in McCoy's 5A medium, and DU145 and CT26 were cultured in RPMI 1640 with 10% FBS, 1% penicillin-streptomycin solution (10,000 U/mL penicillin and 10,000 μg/mL streptomycin) at 37 °C under 5% CO2. The cells were seeded in 96-well plates (4 × 10^3 cells/well) overnight and then treated with various concentrations (1–50 μmol/L) of the compound. After 48 h, the cell viability was measured by CCK-8 assay. The absorbance of each well was measured using a microplate reader (Multiskan FC, Thermo Fisher Scientific, Massachusetts, USA) at 450 nm wavelength. Assays were performed in triplicate. Compound concentrations that inhibited cell growth by 50% (IC50) were calculated from the dose–response curves of each cell line. Data are mean ± SD values from three independent experiments.

HCT116 cells [3] = assay: Colony formation; format: cell-based, human; conditions: 48 h treatment, then 14 days
Method: HCT116 cells were seeded in 6-well plates (1.5 × 10^3 cells/well). Various concentrations of compound 33a or 36b were added to the wells for 48 h. The culture medium was changed every 72 h, at the end of 14 days, cells were fixed with methanol for 30 min and stained with 0.1% crystal violet staining solution for 30 min at room temperature, then washed three times in PBS and allowed to dry. Photographs were then taken.

HCT116 cells [4] = assay: Transwell invasion assay; format: cell-based, human; conditions: 24 h
Method: A transwell chamber (24-well) (Corning, New York, USA) was coated with Matrigel (BD Biosciences, New Jersey, USA), and 1 × 10^5 cells per well were seeded in the upper chamber in serum-free medium and treated with defined doses of compound 33a or 36b. The complete medium was placed in the lower chamber. After 24 h, the cells penetrating through the pores were stained with 0.1% crystal violet solution and observed with a Leica DMIL fluorescence microscope (Leica Microsystems).

HCT116 cells [5] = assay: Autophagy (Western blot of P62, LC3, Beclin1; TEM; MDC staining); format: cell-based, human; conditions: 48 h
Method: Whole protein was extracted and separated by polyacrylamide gel electrophoresis (SDS-PAGE) and transferred onto nitrocellulose membranes. Membranes were blotted with CDK1, Cyclin B1, Caspase-3, BAX, BCL-2, PARP-1, γ-H2AX, P53, ATF4, CHOP, PERK, ATP6, LC3, Beclin1, P62, β-Catenin, c-MYC, MAX, UPP1, GAPDH, β-Actin, and β-Tubulin primary antibodies. Protein band analyses were performed with ImageJ software and protein expression levels were presented as a percentage difference compared to control.

Pharmacokinetic analysis = format: in vivo, Sprague–Dawley rats; conditions: for clearance / half-life / Vd / Cmax / Tmax / AUC(0-inf): male, Sprague-Dawley, plasma; for clearance / half-life / Vd / Cmax / Tmax / AUC0-∞: rat; for Vd: read-out: Vss; for AUC(0-inf): heading: AUC0-∞, Table S5, rat
Method: All animal studies and procedures were approved by the Animal Ethics Committee of College of Chemistry and Chemical Engineering, Henan Normal University, China. Male Sprague–Dawley rats (220 ± 10 g, Shanghai Yuanxin Biological Co., Ltd., Shanghai, China) were used to evaluate drug pharmacokinetic properties. Briefly, compound 33a or 36b was dissolved in PBS containing 10% DMSO and 20% castor oil. Rats were treated with 1 mg/kg of compound 33a or 36b for intravenous injection and 2 mg/kg for oral intragastric administration. Blood samples were collected from each rat at 0, 0.083, 0.25, 0.5, 1, 2, 4, 6, 8, 12, and 24 h. Plasma was isolated from the blood samples by centrifugation (1200 rpm, 4 °C, 10 min. ThermoFisher Scientific, Thermo Electron LED GmbH, Zweigniederlassung Osterode Am Kalkberg, Osterode am Harz, Germany). Sample concentrations were determined by LC-MS/MS (API 4000, AB SCIEX) based on a standard curve. All data were calculated by Excel software.

Acute toxicity assay = format: in vivo; conditions: for Death rate: 10 mice; for Number of dead mice: of 5
Method: SPF BALB/c mice were divided into […] randomly (n = 10, 5 male, and 5 female) and injected intraperitoneally with defined dosages of compound 33a (90, 260, 350, 450, 600, and 800 mg/kg) or dilute (DMSO: castor oil: PBS = 1:2:7, v/v/v). The mice were observed continuously for 14 days after administration. The number of mortalities during the experiment was recorded, and the statistical result of the experimental endpoint was used to calculate LD50.

[6] = Tissue distribution (LC-MS/MS); format: in vivo, BALB/c mice; conditions: for concentration at 4 h: BALB/c, mouse, intraperitoneal, 55 mg/kg intraperitoneally, after 4 h

CCOC(=O)[C@]1(n2cnc3c(N4CCCCC4)nc(F)nc32)CSC[C@H]1O (racemic) [33a]
IC50 (HeLa cells): 8.73 ± 1.02 µM
IC50 (HCT116 cells [1]): 0.27 ± 0.01 µM
IC50 [2]: 21.1 ± 1.21 µM
colony formation (HCT116 cells [3]): reduce the colony formation number in a dose-dependent manner
invasion (HCT116 cells [4]): distinctly reduced the number of HCT116 cells passing through the matrix membrane
autophagy (HCT116 cells [5]): could inhibit autophagy in HCT116
clearance (Pharmacokinetic analysis; IV, 1 mg/kg): 5.1 mL/min/kg
half-life (Pharmacokinetic analysis; IV, 1 mg/kg): 5 h
Vd (Pharmacokinetic analysis; IV, 1 mg/kg): 2.15 L/kg
Cmax (Pharmacokinetic analysis; oral (i.g.), 2 mg/kg): 301 ng/mL
Tmax (Pharmacokinetic analysis; oral (i.g.), 2 mg/kg): 4 h
half-life (Pharmacokinetic analysis; oral (i.g.), 2 mg/kg): 6.8 h
AUC0-∞ (Pharmacokinetic analysis; IV, 1 mg/kg): 3270 ng·h/mL
AUC0-∞ (Pharmacokinetic analysis; oral (i.g.), 2 mg/kg): 3310 ng·h/mL
Death rate (Acute toxicity assay; 90 mg/kg i.p.): 0%
Number of dead mice (Acute toxicity assay; 90 mg/kg, ♀): 0
Number of dead mice (Acute toxicity assay; 90 mg/kg, ♂): 0
Death rate (Acute toxicity assay; 260 mg/kg i.p.): 0%
Number of dead mice (Acute toxicity assay; 260 mg/kg, ♀): 0
Number of dead mice (Acute toxicity assay; 260 mg/kg, ♂): 0
Death rate (Acute toxicity assay; 350 mg/kg i.p.): 10%
Number of dead mice (Acute toxicity assay; 350 mg/kg, ♀): 1
Number of dead mice (Acute toxicity assay; 350 mg/kg, ♂): 0
Death rate (Acute toxicity assay; 450 mg/kg i.p.): 20%
Number of dead mice (Acute toxicity assay; 450 mg/kg, ♀): 2
Number of dead mice (Acute toxicity assay; 450 mg/kg, ♂): 0
Death rate (Acute toxicity assay; 600 mg/kg i.p.): 60%
Number of dead mice (Acute toxicity assay; 600 mg/kg, ♀): 3
Number of dead mice (Acute toxicity assay; 600 mg/kg, ♂): 3
Death rate (Acute toxicity assay; 800 mg/kg i.p.): 100%
Number of dead mice (Acute toxicity assay; 800 mg/kg, ♀): 5
Number of dead mice (Acute toxicity assay; 800 mg/kg, ♂): 5
LD50 at 14 days (Acute toxicity assay; both sexes, mouse, in vivo, ip, BALB/c mice, intraperitoneal, observed 14 days): 553 mg/kg
blood-brain barrier passage ([6]; 55 mg/kg, 4 h): can readily cross the blood‒brain barrier
concentration at 4 h ([6]; brain, read-out: concentration in brain): 87900 ± 21500 ng/g
concentration at 4 h ([6]; heart, read-out: concentration in heart): 16900 ± 2990 ng/g
concentration at 4 h ([6]; kidney, read-out: concentration in kidney): 70400 ± 5140 ng/g
concentration at 4 h ([6]; liver, read-out: concentration in liver): 12500 ± 2130 ng/g
concentration at 4 h ([6]; lung, read-out: concentration in lung): 38500 ± 4430 ng/g
concentration at 4 h ([6]; spleen, read-out: concentration in spleen): 5490 ± 2450 ng/g

CCCSc1nc(F)nc2c1ncn2[C@@]1(C(=O)OCC)CSC[C@@H]1O (relative stereo) [36b]
IC50 (HeLa cells): 6.35 ± 1.08 µM
IC50 (HCT116 cells [1]): 0.49 ± 0.08 µM
IC50 [2]: 6.59 ± 1.36 µM
colony formation (HCT116 cells [3]): reduce the colony formation number in a dose-dependent manner
invasion (HCT116 cells [4]): distinctly reduced the number of HCT116 cells passing through the matrix membrane
autophagy (HCT116 cells [5]): could up-regulate the protein levels of P62 but showed no obvious effect on LC3-II and Beclin1
AUC(0-inf) (Pharmacokinetic analysis; 1 mg/kg, IV, 1 mg/kg): 8800 ng·h/mL
AUC(0-inf) (Pharmacokinetic analysis; 2 mg/kg, oral, 2 mg/kg): 1800 ng·h/mL
clearance (Pharmacokinetic analysis; IV, 1 mg/kg): 1.89 mL/min/kg
half-life (Pharmacokinetic analysis; IV, 1 mg/kg): 4.9 h
Vd (Pharmacokinetic analysis; IV, 1 mg/kg): 3.54 L/kg
Cmax (Pharmacokinetic analysis; oral (i.g.), 2 mg/kg): 276 ng/mL
Tmax (Pharmacokinetic analysis; oral (i.g.), 2 mg/kg): 4 h
half-life (Pharmacokinetic analysis; oral (i.g.), 2 mg/kg): 4.1 h
